In article PMC5228037, “Discovery and Mechanistic Characterization of Selective Inhibitors of H2S-producing Enzyme: 3-Mercaptopyruvate Sulfurtransferase (3MST) Targeting Active-site Cysteine Persulfide” (Scientific Reports, 2017):

Assay: Reactivity test toward 3MP and DTT (2nd screening, no enzyme)
Conditions: 50 μM 3MP, 40 μM DTT, no 3MST, mean±S.D. n = 4
Method: Reactivity of the hit compounds toward 3MP and DTT was examined. The final concentration of the compounds was 10 or 50 μM. The assay protocol was as follows: compounds were diluted with HSip-1 solution to 20 or 100 μM solution (10% DMSO) with a Multi-Drop Combi. Next, 3MP and DTT solution (10 μL, final concentrations: 50 μM 3MP and 40 μM DTT) was dispensed into the plates (total volume was 20 μL, 5% DMSO), and the plates were incubated at room temperature for 3 hr. The fluorescence of HSip-1 was measured (λex = 485 nm, λem = 520 nm) with a microplate reader (PHERAstar PLUS). Background control wells (i.e., no addition wells instead of addition of 3MP and DTT, n = 16) were also prepared for all plates.
Supplementary Note 3. […]
The second screening, which is a non-enzymatic assay, was performed to eliminate false-positive hit compounds such as naphthoquinone that react with the substrates, e.g., 3MP and DTT. Even in […]
μM 3MP and 40 μM DTT. The fluorescence increase in the presence or the absence of 3MP and DTT was regarded as 100% or 0% fluorescence signal, respectively, and we evaluated the ability of each compound (10 μM and 50 μM) to inhibit the fluorescence increase caused by the reaction with 3MP and DTT. In this assay, we selected compounds showing ‒25% ≤ inhibitory activity at both 10 and 50 μM ≤ 50% (545 compounds). Then, we further selected compounds showing more than 60% inhibitory activity in the previous confirmation test among 545 compounds (146 hit compounds) (Supplementary Fig. S7). These compounds were considered not to react with 3MP and DTT, at least in this concentration range. […]

| Structure (SMILES) | No Enzyme: inhibition of HSip-1 fluorescence increase caused by 3MP and DTT (10 μM compound) [%] | No Enzyme: inhibition of HSip-1 fluorescence increase caused by 3MP and DTT (50 μM compound) [%] |
| --- | --- | --- |
| Cc1cc(=O)[nH]c(SCC(=O)c2cccc3ccccc23)n1 [compound 3] | 7.4±5.5 | 6.3±4.5 |
| Cc1sc2nc(SCC(=O)c3ccc(O)cc3O)[nH]c(=O)c2c1C [compound 2] | 7.4±10.6 | -23.6±17.1 |
| O=C(O)c1cccc(NS(=O)(=O)c2ccccc2)c1 [compound 5] | 11.4±4.9 | 10.5±4.5 |
| NC(=O)c1ccsc1NC(=O)CSc1nc2ccccc2c(=O)[nH]1 [compound 1] | 10.1±6.2 | 17.2±4.0 |
